Legend:
[1] = molecular target: T1, cloned human dopamine receptors D4 (Homo sapiens, UniProt P21917); assay: Binding affinity to dopamine receptor, radiolabeled ligand displacement (D4); set-up: Affinity to Dopamine Receptors (% Inhibition) D4: dose or concentration left out as unconfirmed
T1 sequence (P21917 1-419): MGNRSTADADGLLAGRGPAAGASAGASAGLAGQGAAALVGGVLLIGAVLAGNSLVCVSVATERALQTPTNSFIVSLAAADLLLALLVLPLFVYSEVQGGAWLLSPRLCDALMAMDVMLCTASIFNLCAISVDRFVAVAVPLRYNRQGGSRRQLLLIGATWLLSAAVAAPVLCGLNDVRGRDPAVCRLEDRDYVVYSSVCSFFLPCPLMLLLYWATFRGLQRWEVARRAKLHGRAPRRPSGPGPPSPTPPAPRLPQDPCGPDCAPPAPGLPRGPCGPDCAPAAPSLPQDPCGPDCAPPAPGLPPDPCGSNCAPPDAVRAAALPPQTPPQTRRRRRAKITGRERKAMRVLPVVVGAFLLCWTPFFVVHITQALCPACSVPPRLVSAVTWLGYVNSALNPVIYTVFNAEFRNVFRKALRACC
Protocol: (§1) Binding affinities of the compounds for dopamine receptors were determined indirectly by their ability to displace radiolabeled ligand from cloned human dopamine receptors. Compounds were incubated in receptor suspension to compete with the. radiolabeled ligand. The receptor-bound radiolabeled ligand was separated by filtering through Wallac glass fiber filtermat (GF/C) using Inotech cell harvester of 96-well format. The radioactivity bound to filter was counted by Micro-β counter (Wallac).
(§2) The aliquots of cloned human dopamine receptors stored at −70° C. were suspended in assay buffer and the content of receptor in each aliquot was determined by Bio-Rad DC protein assay kit to give an optimal protein (receptor) concentration obtained by preliminary receptor binding assay. Receptor suspension adjusted to optimal concentration was aliquoted in proper volume for assay and stored at −70° C. Binding assays of every compound were performed in duplicate and each different buffer solution was used for optimal assay with each subtype of dopamine receptors. Receptor binding assays were carried out in 96-well plates. Receptor suspension of 100 μl was incubated at 27° C. for 30-60 min in a final volume of 0.25 ml reaction mixture containing 50 μl of hot-ligand and 10 μl of test compound.
(§3) After incubation, the reaction mixture was washed with ice-cold 50 mM Tris-acetate buffer by rapid filtration using a Inotech cell harvester (Inotech, Switzerland) through Whatman GF/C glass fiber filter presoaked in the assay buffer. The filter was covered with MeltiLex, sealed in a sample bag followed by drying in the microwave, and counted by MicroBeta Plus(Wallac, Finland) at a counting efficiency of 30-40%.

[2] = molecular target: cloned human dopamine receptors D2 (Homo sapiens, UniProt P14416); assay: Binding affinity to dopamine receptor, radiolabeled ligand displacement (D2); set-up: Affinity to Dopamine Receptors (% Inhibition) D2: dose or concentration left out as unconfirmed
Protocol: as §1, §2, §3

[3] = molecular target: cloned human dopamine receptors D1 (Homo sapiens, UniProt P21728); assay: Binding affinity to dopamine receptor, radiolabeled ligand displacement (D1); set-up: dose or concentration left out as unconfirmed
Protocol: as §1, §2, §3

[4] = molecular target: cloned human dopamine receptors D3 (Homo sapiens, UniProt P35462); assay: Binding affinity to dopamine receptor, radiolabeled ligand displacement (D3); set-up: Affinity to Dopamine Receptors (% Inhibition) D3: dose or concentration left out as unconfirmed
Protocol: as §1, §2, §3

cloned human dopamine receptors D1, sequence (P21728 whole entry): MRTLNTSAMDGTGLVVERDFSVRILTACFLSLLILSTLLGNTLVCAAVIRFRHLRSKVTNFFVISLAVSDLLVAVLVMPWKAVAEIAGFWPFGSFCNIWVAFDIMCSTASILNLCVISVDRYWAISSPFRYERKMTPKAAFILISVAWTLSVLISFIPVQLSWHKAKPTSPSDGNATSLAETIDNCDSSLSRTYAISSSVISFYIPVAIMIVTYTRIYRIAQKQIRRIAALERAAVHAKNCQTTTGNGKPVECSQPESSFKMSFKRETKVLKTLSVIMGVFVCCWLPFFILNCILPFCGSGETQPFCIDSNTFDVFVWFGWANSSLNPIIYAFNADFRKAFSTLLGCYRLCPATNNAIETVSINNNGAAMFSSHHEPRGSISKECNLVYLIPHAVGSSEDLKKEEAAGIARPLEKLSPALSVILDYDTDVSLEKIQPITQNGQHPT
cloned human dopamine receptors D3, sequence (P35462 whole entry): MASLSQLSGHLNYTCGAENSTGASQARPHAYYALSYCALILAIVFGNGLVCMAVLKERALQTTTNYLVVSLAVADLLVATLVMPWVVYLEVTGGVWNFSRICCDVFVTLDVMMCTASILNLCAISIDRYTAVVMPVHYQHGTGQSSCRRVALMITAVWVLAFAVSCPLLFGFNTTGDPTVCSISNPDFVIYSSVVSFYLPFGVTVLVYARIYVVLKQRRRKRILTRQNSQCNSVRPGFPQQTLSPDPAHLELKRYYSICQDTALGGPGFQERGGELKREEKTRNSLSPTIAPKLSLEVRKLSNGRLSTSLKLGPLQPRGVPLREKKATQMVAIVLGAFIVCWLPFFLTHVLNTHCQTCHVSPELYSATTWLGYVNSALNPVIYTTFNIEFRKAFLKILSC
cloned human dopamine receptors D2, sequence (P14416 whole entry): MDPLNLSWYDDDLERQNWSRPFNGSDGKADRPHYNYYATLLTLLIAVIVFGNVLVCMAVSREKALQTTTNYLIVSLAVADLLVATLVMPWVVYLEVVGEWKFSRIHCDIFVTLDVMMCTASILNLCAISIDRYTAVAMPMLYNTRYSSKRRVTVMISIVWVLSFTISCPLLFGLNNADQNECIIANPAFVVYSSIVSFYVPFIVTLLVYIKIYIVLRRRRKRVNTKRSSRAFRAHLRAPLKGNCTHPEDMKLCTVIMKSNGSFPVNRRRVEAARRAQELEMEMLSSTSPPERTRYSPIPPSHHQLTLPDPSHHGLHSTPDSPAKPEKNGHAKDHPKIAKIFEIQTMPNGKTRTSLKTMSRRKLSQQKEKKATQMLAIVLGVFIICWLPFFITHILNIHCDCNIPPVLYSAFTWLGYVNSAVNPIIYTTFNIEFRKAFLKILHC

Compound	Affinity to Dopamine Receptors (% Inhibition) D4 [1]	IC50 [1]	Affinity to Dopamine Receptors (% Inhibition) D2 [2]	IC50 [2]	Affinity to Dopamine Receptors (% Inhibition) D1 [3]	Affinity to Dopamine Receptors (% Inhibition) D3 [4]	IC50 [4]
CCOc1ccccc1N1CCN(CCCC2CC(c3ccc(OC)c(OC)c3)=NO2)CC1 (racemic) [Compound No. 29]	57.4%	108 nM	83.5%	110 nM	40.1%		
CCOc1ccccc1N1CCN(CCCC2CC(c3cccs3)=NO2)CC1 (racemic) [Compound No. 30]	102.3%	11 nM	88.2%	470 nM	57.8%	101.2%	4 nM
COc1ccccc1N1CCN(CCCCC2CC(c3ccccc3)=NO2)CC1 (racemic) [Compound No. 34]	100.1%		58.3%		23.6%	83.8%	
COc1ccc(C2=NOC(CCCN3CCN(c4ccccc4)CC3)C2)cc1OC (stereo not shown) [Compound No. 7]	103.9%	71 nM	49.0%	9230 nM	9.0%	102.5%	21 nM
COc1ccc(C2=NOC(CCCN3CCN(c4ccccc4OC)CC3)C2)cc1OC (stereo not shown) [Compound No. 9]	104.4%	23 nM	57.7%	1440 nM	19.6%	101.2%	5 nM
COc1ccccc1N1CCN(CCCC2CC(c3cccs3)=NO2)CC1 (stereo not shown) [Compound No. 10]	103.6%	34 nM	56.0%	1930 nM	19.9%	99.9%	19 nM

— patent publication US6673800B2, “4,5,-dihydroisoxazolylakylpiperazine derivatives having selective biological activity at dopamine D3 or D4 receptor, and preparation thereof” (Korea Institute of Science and Technology, priority 2000, dated 2004)
